Experimental data taken from US12172959B2, “Mono- or di-substituted indole derivatives as dengue viral replication inhibitors” (priority 2015, dated 2024).
pEC50: −log10 of the molar value. Read-outs that look alike come from different tables or passages of the source.

Assays:
[1] = tested on: DENV-2 16681 strain; assay: DENV-2 antiviral assay (eGFP fluorescence, Vero cells); type: cell-based, Dengue virus; details: DENV-2 16681 eGFP, MOI 0.5, 3 days
Description: The antiviral activity of all the compounds of the invention was tested against the DENV-2 16681 strain which was labeled with enhanced green fluorescent protein (eGPF; Table 1). The culture medium consists of minimal essential medium supplemented with 2% of heat-inactivated fetal calf serum, 0.04% gentamycin (50 mg/mL) and 2 mM of L-glutamine. Vero cells, obtained from ECACC, were suspended in culture medium and 25 μL was added to 384-well plates (2500 cells/well), which already contain the antiviral compounds. Typically, these plates contain a 5-fold serial dilution of 9 dilution steps of the test compound at 200 times the final concentration in 100% DMSO (200 nL). […] Finally, each plate contains wells which are assigned as virus controls (containing cells and virus in the absence of compound), cell controls (containing cells in the absence of virus and compound) and medium controls (containing medium in the absence of cells, virus and compounds). To the wells assigned as medium control, 25 μL of culture medium was added instead of Vero cells. Once the cells were added to the plates, the plates were incubated for 30 minutes at room temperature to allow the cells to distribute evenly within the wells. Next, the plates were incubated in a fully humidified incubator (37° C., 5% CO2) until the next day. Then, DENV-2 strain 16681, labeled with eGFP, was added at a multiplicity of infection (MOI) of 0.5. Therefore, 15 μL of virus suspension was added to all the wells containing test compound and to the wells assigned as virus control. In parallel, 15 μL of culture medium was added to the medium and cell controls. Next, the plates were incubated for 3 days in a fully humidified incubator (37° C., 5% CO2). At the day of the read out, the eGFP fluorescence was measured using an automated fluorescence microscope at 488 nm (blue laser). Using an in-house LIMS system, inhibition dose response curves for each compound were calculated and the half maximal effective concentration (EC50) was determined. Therefore, the percent inhibition (I) for every test concentration is calculated using the following formula: I=100*(ST−SCC)/(SVC−SCC); ST, SCC and SVC are the amount of eGFP signal in the test compound, cell control and virus control wells, respectively. The EC50 represents the concentration of a compound at which the virus replication is inhibited with 50%, as measured by a 50% reduction of the eGFP fluorescent intensity compared to the virus control. The EC50 is calculated using linear interpolation.

[2] = tested on: DENV-1 strain TC974#666; assay: Tetravalent RT-qPCR assay Protocol A, serotype 1; type: cell-based; details: Dengue virus, DENV1, 72 h, RT-qPCR serotype 1 TC974#666, Vero cells, day 3
Description: (§1) The antiviral activity of the compounds of the invention was tested against DENV-1 strain TC974#666 (NCPV; Table 6), DENV-2 strain 16681 (Table 7), DENV-3 strain H87 (NCPV; Table 8) and DENV-4 strains H241 (NCPV; Table 9A) and SG/06K2270DK1/2005 (Eden; Table 9B) in a RT-qPCR assay. Therefore, Vero cells were infected with either DENV-1, or -2, or -3, or -4 in the presence or absence of test compounds. At day 3 post-infection, the cells were lysed and cell lysates were used to prepare cDNA of both a viral target (the 3′UTR of DENV; Table 2) and a cellular reference gene (β-actin, Table 2). Subsequently, a duplex real time PCR was performed on a Lightcycler480 instrument. The generated Cp value is inversely proportional to the amount of RNA expression of these targets. Inhibition of DENV replication by test compound results in a shift of Cp's for the 3′UTR gene. On the other hand, if a test compound is toxic to the cells, a similar effect on β-actin expression will be observed. The comparative ΔΔCp method is used to calculate EC50, which is based on the relative gene expression of the target gene (3′UTR) normalized with the cellular housekeeping gene (β-actin).
(§2) The culture medium consisted of minimal essential medium supplemented with 2% of heat-inactivated fetal calf serum, 0.04% gentamycin (50 mg/mL) and 2 mM of L-glutamine. Vero cells, obtained from ECACC, were suspended in culture medium and 75 μL/well was added in 96-well plates (10000 cells/well), which already contain the antiviral compounds. […] In addition, each plate contains wells which are assigned as virus controls (containing cells and virus in the absence of compound) and cell controls (containing cells in the absence of virus and compound). Once the cells were added in the plates, the plates were incubated in a fully humidified incubator (37° C., 5% CO2) until the next day. Dengue viruses serotype-1, 2, 3 and 4 were diluted in order to obtain a Cp of ˜22-24 in the assay. Therefore, 25 μL of virus suspension was added to all the wells containing test compound and to the wells assigned as virus control. In parallel, 25 μL of culture medium was added to the cell controls. Next, the plates were incubated for 3 days in a fully humidified incubator (37° C., 5% CO2). After 3 days, the supernatant was removed from the wells and the cells were washed twice with ice-cold PBS (˜100 μL). The cell pellets within the 96-well plates were stored at −80° C. for at least 1 day. Next, RNA was extracted using the Cells-to-CT™ lysis kit, according to the manufacturer's guideline (Life Technologies). The cell lysates can be stored at −80° C. or immediately used in the reverse transcription step.
(§3) In preparation of the reverse transcription step, mix A (table 3A) was prepared and 7.57 μL/well was dispensed in a 96-well plate. After addition of 5 μL of the cell lysates, a five minute denaturation step at 75° C. was performed (table 3B). Afterwards, 7.43 μL of mix B was added (table 3C) and the reverse transcription step was initiated (table 3D) to generate cDNA.
(§4) Finally, a RT-qPCR mix was prepared, mix C (table 4A), and 22.02 μL/well was dispensed in 96-well LightCycler qPCR plates to which 3 μL of cDNA was added and the qPCR was performed according to the conditions in table 4B on a LightCycler 480.
(§5) Using the LightCycler software and an in-house LIMS system, dose response curves for each compound were calculated and the half maximal effective concentration (EC50) and the half maximal cytotoxic concentration (CC50) were determined.

[3] = tested on: DENV-2 strain 16681; assay: Tetravalent RT-qPCR assay Protocol A, serotype 2; type: cell-based; details: Dengue virus
Description: as §1, §2, §3, §4, §5

[4] = tested on: DENV-3 strain H87; assay: Tetravalent RT-qPCR assay Protocol A, serotype 3; type: cell-based; details: Dengue virus, DENV3, 72 h, RT-qPCR serotype 3 H87, Vero cells, day 3
Description: as §1, §2, §3, §4, §5

[5] = tested on: DENV-4 strain H241; assay: Tetravalent RT-qPCR assay Protocol A, serotype 4 H241; type: cell-based; details: Dengue virus
Description: as §1, §2, §3, §4, §5

[6] = in vitro; type: cell-based; details: African green monkey, CC50
Description: as §1, §2, §5

[7] = tested on: Vero cells; details: African green monkey
[8] = in vitro; details: African green monkey
[9] = tested on: DENV-4 strain SG/06K2270DK1/2005 (Eden); assay: Tetravalent RT-qPCR assay Protocol A, serotype 4 EDEN; type: cell-based; details: Dengue virus, DENV4, Vero, 72 h
Description: as §1, §2, §3, §4, §5

[10] = DENV2, 72 h, Protocol A, RT-qPCR serotype 2 16681, Vero cells, day 3, read-out: EC50
[11] = DENV4, 72 h, Protocol A, RT-qPCR serotype 4 H241, Vero cells, day 3, read-out: EC50
[12] = Dengue virus, DENV2, Vero, 72 h

| SMILES | pEC50 [1] | pEC50 [2] | pEC50 [3, 10] | pEC50 [4] | pEC50 [5, 11] | CC50 at 3 days [6] [nM] | CC50 [7] [nM] | pEC50 [1, 12] | CC50 [8] [nM] | other results |
| --- | --- | --- | --- | --- | --- | --- | --- | --- | --- | --- |
| COc1cc(NC(C(=O)c2c[nH]c3ccc(OC(F)(F)F)cc23)c2ccc(Cl)cc2OC)cc(S(C)(=O)=O)c1 (single isomer, unassigned) [Compound 9A, 2-(4-chloro-2-methoxyphenyl)-2-((3-methoxy-5-(methyl-sulfonyl)phenyl)amino)-1-(5-(trifluoromethoxy)-1H-indol-3-yl)ethanone] | 10.17 | 9.96 | 10.24 | 8.68 | 7.92 | 1700 | 2900 | – | – | – |
| COc1cc(NC(C(=O)c2c[nH]c3cc(OC)ccc23)c2ccc(Cl)cc2OC)cc(S(C)(=O)=O)c1 (racemic) [Compound 3, 2-(4-chloro-2-methoxyphenyl)-1-(6-methoxy-1H-indol-3-yl)-2-((3-methoxy-5-(methylsulfonyl)phenyl)amino)ethanone] | – | – | – | – | – | – | – | 9.24 | > 11000 | – |
| COc1cc(NC(C(=O)c2c[nH]c3cc(OC)ccc23)c2ccc(Cl)cc2OC)cc(S(C)(=O)=O)c1 (single isomer, unassigned) [Compound 3A, 2-(4-chloro-2-methoxyphenyl)-1-(6-methoxy-1H-indol-3-yl)-2-((3-methoxy-5-(methylsulfonyl)phenyl)amino)ethanone] | 9.60 | 8.38 | 9.52 | 7.32 | 6.96 | 5500 | – | – | 7200 | pEC50 [9]: 8.52 |
| COc1cc(NC(C(=O)c2c[nH]c3cc(OC)c(F)cc23)c2ccc(Cl)cc2OC)cc(S(C)(=O)=O)c1 (racemic) [Compound 5, 2-(4-chloro-2-methoxyphenyl)-1-(5-fluoro-6-methoxy-1H-indol-3-yl)-2-((3-methoxy-5-(methylsulfonyl)phenyl)amino)ethanone] | – | – | – | – | – | – | – | 9.21 | 5500 | – |
| COc1cc(NC(C(=O)c2c[nH]c3ccc(C(F)(F)F)cc23)c2ccc(Cl)cc2OC)cc(S(C)(=O)=O)c1 (single isomer, unassigned) [Compound 8B, 2-(4-chloro-2-methoxyphenyl)-2-((3-methoxy-5-(methyl-sulfonyl)phenyl)amino)-1-(5-(trifluoromethyl)-1H-indol-3-yl)ethanone] | 10.16 | 9.35 | – | 8.24 | 7.82 | 1900 | 3400 | – | – | pEC50 ([3]; DENV2, Vero, 72 h): 9.51 |
| COc1cc(NC(C(=O)c2c[nH]c3ccc(C(F)(F)F)cc23)c2ccc(Cl)cc2OC)cc(S(C)(=O)=O)c1 (racemic) [Compound 8, 2-(4-chloro-2-methoxyphenyl)-2-((3-methoxy-5-(methyl-sulfonyl)phenyl)amino)-1-(5-(trifluoromethyl)-1H-indol-3-yl)ethanone] | – | – | – | – | – | – | – | 9.89 | 2900 | – |
| COc1cc(NC(C(=O)c2c[nH]c3c(C)c(F)ccc23)c2ccc(Cl)cc2OC)cc(S(C)(=O)=O)c1 (racemic) [Compound 2, 2-(4-chloro-2-methoxyphenyl)-1-(6-fluoro-7-methyl-1H-indol-3-yl)-2-((3-methoxy-5-(methylsulfonyl)phenyl)amino)ethanone] | – | – | – | – | – | – | – | 9.22 | 5000 | – |
| COc1cc(NC(C(=O)c2c[nH]c3cc(F)c(C)cc23)c2ccc(Cl)cc2OC)cc(S(C)(=O)=O)c1 (single isomer, unassigned) [Compound 7B, 2-(4-chloro-2-methoxyphenyl)-1-(6-fluoro-5-methyl-1H-indol-3-yl)-2-((3-methoxy-5-(methylsulfonyl)phenyl)amino)ethanone] | 9.70 | 9.40 | 9.77 | 8.11 | 7.36 | 2200 | 3200 | – | – | – |
| COc1cc(NC(C(=O)c2c[nH]c3ccc(OC(F)(F)F)cc23)c2ccc(Cl)cc2OC)cc(S(C)(=O)=O)c1 (racemic) [Compound 9, 2-(4-chloro-2-methoxyphenyl)-2-((3-methoxy-5-(methyl-sulfonyl)phenyl)amino)-1-(5-(trifluoromethoxy)-1H-indol-3-yl)ethanone] | – | – | – | – | – | – | – | 10.13 | 3100 | – |
| COc1cc(NC(C(=O)c2c[nH]c3cc(F)c(C)cc23)c2ccc(Cl)cc2OC)cc(S(C)(=O)=O)c1 (racemic) [Compound 7, 2-(4-chloro-2-methoxyphenyl)-1-(6-fluoro-5-methyl-1H-indol-3-yl)-2-((3-methoxy-5-(methylsulfonyl)phenyl)amino)ethanone] | – | – | – | – | – | – | – | 9.33 | 3200 | – |
| COc1cc(NC(C(=O)c2c[nH]c3cc(OC)c(C)cc23)c2ccc(Cl)cc2OC)cc(S(C)(=O)=O)c1 (racemic) [Compound 4, 2-(4-chloro-2-methoxyphenyl)-2-((3-methoxy-5-(methyl-sulfonyl)phenyl)amino)-1-(6-methoxy-5-methyl-1H-indol-3-yl)ethanone] | – | – | – | – | – | – | – | 9.41 | 5900 | – |
| COc1cc(NC(C(=O)c2c[nH]c3c(C)cc(OC(F)(F)F)cc23)c2ccc(Cl)cc2OC)cc(S(C)(=O)=O)c1 (single isomer, unassigned) [Compound 11A, 2-(4-chloro-2-methoxyphenyl)-2-((3-methoxy-5-(methylsulfonyl)phenyl)amino)-1-(7-methyl-5-(trifluoromethoxy)-1H-indol-3-yl)ethanone] | 10.07 | 9.89 | 10.29 | 8.92 | – | > 2500 | 2600 | – | – | pEC50 ([5]; DENV4, Vero, 72 h): 7.96 |
